Results reported in PubChem BioAssay AID256 (DTP/NCI, 2004).
Several values for one entry are separate records, joined by “and”; a condition that tells them apart may be missing. Identical values can stand only once. Inconclusive results and toxic doses are left out. Rule for the calls: active = survival T/C of 150% or more; inactive = T/C below 125% in these data.

Tested on: CD2F1 mice, L1210 leukemia ip, survival T/C
Assay: NCI In Vivo Anticancer Drug Screen. Data for tumor model L1210 Leukemia (intraperitoneal) in CD2F1 (CDF1) mice
Settings: endpoint: mean survival time, higher = longer survival
How it was run: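 Tumor-bearing mice (transplanted tumor) were split into treated and vehicle control groups, and the measured endpoint of each treated group was divided by that of its vehicle controls.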

[1] = dose: 25.0 mg/kg/injection, schedule: Q04DX003 (ip), vehicle: saline
[2] = dose: 50.0 mg/kg/injection, schedule: Q04DX003 (ip), vehicle: saline
[3] = dose: 200.0 mg/kg/injection, schedule: Q04DX003 (ip), vehicle: saline
[4] = dose: 75.0 mg/kg/injection, schedule: Q01DX001 (ip), vehicle: saline
[5] = dose: 150.0 mg/kg/injection, schedule: Q01DX001 (ip), vehicle: saline
[6] = dose: 100.0 mg/kg/injection, schedule: Q01DX009 (ip), vehicle: saline with Tween-80
[7] = dose: 100.0 mg/kg/injection, schedule: Q01DX001 (ip), vehicle: saline with Tween-80
[8] = dose: 200.0 mg/kg/injection, schedule: Q01DX001 (ip), vehicle: saline with Tween-80
[9] = dose: 400.0 mg/kg/injection, schedule: Q01DX001 (ip), vehicle: saline with Tween-80
[10] = dose: 12.5 mg/kg/injection, schedule: Q01DX009 (ip), vehicle: saline sonified
[11] = dose: 25.0 mg/kg/injection, schedule: Q01DX009 (ip), vehicle: saline sonified
[12] = dose: 50.0 mg/kg/injection, schedule: Q01DX009 (ip), vehicle: saline sonified
[13] = dose: 100.0 mg/kg/injection, schedule: Q04DX003 (ip), vehicle: saline with Tween-80
[14] = dose: 200.0 mg/kg/injection, schedule: Q04DX003 (ip), vehicle: saline with Tween-80
[15] = dose: 400.0 mg/kg/injection, schedule: Q04DX003 (ip), vehicle: saline with Tween-80
[16] = dose: 200.0 mg/kg/injection, schedule: Q01DX009 (ip), vehicle: saline with Tween-80
[17] = dose: 400.0 mg/kg/injection, schedule: Q01DX009 (ip), vehicle: saline with Tween-80
[18] = dose: 50.0 mg/kg/injection, schedule: Q01DX009 (ip), vehicle: saline with Tween-80
[19] = dose: 100.0 mg/kg/injection, schedule: Q04DX003 (ip), vehicle: saline
[20] = dose: 25.0 mg/kg/injection, schedule: Q01DX009 (ip), vehicle: saline with Tween-80

Measured: T/C

Nc1nc(N)c2c(=O)c(CSc3ccc(C(=O)NC(CCC(=O)O)C(=O)O)cc3)c[nH]c2n1 (centres undefined)
inactive: dose: 0.5 mg/kg/injection, schedule: Q01DX005 (ip), vehicle: sodium bicarbonate 92 % of control and 104 % of control | dose: 1.0 mg/kg/injection, schedule: Q01DX005 (ip), vehicle: sodium bicarbonate 92 % of control and 106 % of control | dose: 2.0 mg/kg/injection, schedule: Q01DX005 (ip), vehicle: sodium bicarbonate 89 % of control and 108 % of control | dose: 4.0 mg/kg/injection, schedule: Q01DX005 (ip), vehicle: sodium bicarbonate 95 % of control and 104 % of control | dose: 8.0 mg/kg/injection, schedule: Q01DX005 (ip), vehicle: sodium bicarbonate 95 % of control and 108 % of control | dose: 16.0 mg/kg/injection, schedule: Q01DX005 (ip), vehicle: sodium bicarbonate 95 % of control and 106 % of control

COC(=O)C1C(C(C)=O)C2C(=O)C3C(C(=O)OC)C(C(=O)OC)C3C(=O)C12 (centres undefined)
inactive: dose: 25.0 mg/kg/injection, schedule: Q04DX002 (ip), vehicle: saline with Tween-80 93 % of control | dose: 50.0 mg/kg/injection, schedule: Q04DX002 (ip), vehicle: saline with Tween-80 96 % of control | dose: 100.0 mg/kg/injection, schedule: Q04DX002 (ip), vehicle: saline with Tween-80 100 % of control | dose: 200.0 mg/kg/injection, schedule: Q04DX002 (ip), vehicle: saline with Tween-80 96 % of control

CCn1cnc2c(SC3CCCC3)ncnc21
inactive: dose: 100.0 mg/kg/injection, schedule: Q01DX001 (ip), vehicle: carboxymethylcellulose (CMC) 112 % of control | dose: 200.0 mg/kg/injection, schedule: Q01DX001 (ip), vehicle: carboxymethylcellulose (CMC) 108 % of control | dose: 400.0 mg/kg/injection, schedule: Q01DX001 (ip), vehicle: carboxymethylcellulose (CMC) 121 % of control

OCCN1CCN(CCCN2c3ccccc3Sc3ccc(Cl)cc32)CC1
inactive: dose: 6.25 mg/kg/injection, schedule: Q01DX009 (ip), vehicle: Klucel (hydroxypropylcellulose) (HPC) 93 % of control | dose: 6.25 mg/kg/injection, schedule: Q04DX002 (ip), vehicle: Klucel (hydroxypropylcellulose) (HPC) 96 % of control | dose: 12.5 mg/kg/injection, schedule: Q01DX009 (ip), vehicle: Klucel (hydroxypropylcellulose) (HPC) 96 % of control | dose: 12.5 mg/kg/injection, schedule: Q04DX002 (ip), vehicle: Klucel (hydroxypropylcellulose) (HPC) 91 % of control | dose: 25.0 mg/kg/injection, schedule: Q01DX009 (ip), vehicle: Klucel (hydroxypropylcellulose) (HPC) 116 % of control | [1] 108 % of control and 110 % of control | dose: 25.0 mg/kg/injection, schedule: Q04DX009 (ip), vehicle: Klucel (hydroxypropylcellulose) (HPC) 113 % of control | [2] 110 % of control | [3] 116 % of control

Cc1ncc(C[P+](c2ccccc2)(c2ccccc2)c2ccccc2)c2c1OC(C)(C)OC2
inactive: [4] 103 % of control | [5] 112 % of control

[N-]=[N+]=NC1C(O)C(CO)OC1n1c(=O)[nH]c2c(N)ncnc21 (centres undefined)
inactive: dose: 12.5 mg/kg/injection, schedule: Q01DX005 (ip), vehicle: water 94 % of control | dose: 25.0 mg/kg/injection, schedule: Q01DX005 (ip), vehicle: water 99 % of control | dose: 50.0 mg/kg/injection, schedule: Q01DX005 (ip), vehicle: water 97 % of control | dose: 100.0 mg/kg/injection, schedule: Q01DX005 (ip), vehicle: water 97 % of control | dose: 200.0 mg/kg/injection, schedule: Q01DX005 (ip), vehicle: water 97 % of control

C=C(Cl)CN(CC)CCO
inactive: [6] 103 % of control

Cc1ccc(S(=O)(=O)Nc2ccccc2OCCOCCOc2ccccc2NS(=O)(=O)c2ccc(C)cc2)cc1
inactive: [7] 103 % of control | [8] 91 % of control | [9] 95 % of control

CCCCCC(C)N (centres undefined)
inactive: [10] 101 % of control | dose: 12.5 mg/kg/injection, schedule: Q04DX003 (ip), vehicle: saline 104 % of control | [11] 98 % of control | [1] 103 % of control | [12] 107 % of control | [2] 97 % of control

O=C1NC(=O)C2(CCc3ccccc32)N1 (centres undefined)
inactive: [13] 110 % of control | [14] 98 % of control | [15] 96 % of control

C[Si](C)(C)Oc1c(Cl)cc(Cl)cc1Cl
inactive: [6] 100 % of control | [16] 91 % of control | [17] 87 % of control

Oc1cc2c3c(c1)c1cc4c(cc1c[n+]3CC2)OCO4
inactive: dose: 3.13 mg/kg/injection, schedule: Q01DX009 (ip), vehicle: other 115 % of control | dose: 3.13 mg/kg/injection, schedule: Q01DX009 (ip), vehicle: water 124 % of control | dose: 12.5 mg/kg/injection, schedule: Q01DX009 (ip), vehicle: water 122 % of control | dose: 25.0 mg/kg/injection, schedule: Q01DX009 (ip), vehicle: other 115 % of control

CCC(=O)OC1=CC(=O)c2ccccc2C1=O
inactive: [4] 101 % of control | [5] 105 % of control

c1ccc2cc(OCCOCCOc3ccc4ccccc4c3)ccc2c1
inactive: [7] 103 % of control | [8] 100 % of control | [9] 97 % of control

CC#CS(=O)(=O)C(C)(C)C
inactive: [18] 100 % of control | [6] 100 % of control | [13] 93 % of control | [16] 97 % of control | [14] 90 % of control

CN(C)/N=C/c1ccc(-c2ccccc2)cc1
inactive: [7] 101 % of control | [8] 103 % of control | [9] 112 % of control

CCCc1nc(N)nc(N)n1
inactive: [18] 104 % of control | [6] 104 % of control | [16] 116 % of control

COC(=O)N1c2ccc(C)cc2C=CC1C#N (centres undefined)
inactive: [6] 95 % of control | [13] 102 % of control | [16] 100 % of control | [14] 105 % of control | [17] 95 % of control | [15] 90 % of control

CC(C(=O)c1ccccc1)N(C)C (centres undefined)
inactive: [19] 100 % of control

O=S(=O)(SC(Cl)(Cl)Cl)c1ccc(Cl)cc1
inactive: [10] 103 % of control | [11] 102 % of control | [20] 103 % of control | [12] 102 % of control | [18] 98 % of control | [7] 91 % of control | [6] 98 % of control

O=C(OCCOCCOC(=O)N1CCOCC1)N1CCOCC1
inactive: [19] 100 % of control | [3] 102 % of control | dose: 400.0 mg/kg/injection, schedule: Q04DX003 (ip), vehicle: saline 96 % of control

Nc1csc(N)n1
inactive: dose: 37.5 mg/kg/injection, schedule: Q01DX009 (ip), vehicle: saline 98 % of control | dose: 75.0 mg/kg/injection, schedule: Q01DX009 (ip), vehicle: saline 98 % of control | dose: 150.0 mg/kg/injection, schedule: Q01DX009 (ip), vehicle: saline 98 % of control

Clc1nc[nH]c1Cl
inactive: [20] 97 % of control | [18] 95 % of control | [6] 97 % of control | [13] 95 % of control

Cc1nc(C(=O)O)c(C(=O)O)[nH]1
inactive: [6] 98 % of control | [13] 100 % of control | [16] 97 % of control | [14] 94 % of control

CCOC(=O)/C=C\C1=CCCC1
inactive: dose: 50.0 mg/kg/injection, schedule: Q01DX009 (ip), vehicle: saline 102 % of control | dose: 100.0 mg/kg/injection, schedule: Q01DX009 (ip), vehicle: saline 98 % of control | dose: 200.0 mg/kg/injection, schedule: Q01DX009 (ip), vehicle: saline 102 % of control

Cc1cccc(N=NN(C)C)c1
inactive: dose: 19.0 mg/kg/injection, schedule: Q01DX009 (ip), vehicle: Klucel (hydroxypropylcellulose) (HPC) 113 % of control | dose: 29.0 mg/kg/injection, schedule: Q01DX009 (ip), vehicle: Klucel (hydroxypropylcellulose) (HPC) 119 % of control | dose: 44.0 mg/kg/injection, schedule: Q01DX009 (ip), vehicle: Klucel (hydroxypropylcellulose) (HPC) 123 % of control | dose: 66.0 mg/kg/injection, schedule: Q01DX009 (ip), vehicle: Klucel (hydroxypropylcellulose) (HPC) 114 % of control | [4] 120 % of control

O=Nc1ccc(O)cc1
inactive: dose: 50.0 mg/kg/injection, schedule: Q04DX003 (ip), vehicle: saline with Tween-80 100 % of control | [13] 105 % of control and 107 % of control | [14] 95 % of control and 111 % of control
